What was measured:
[1] = Artificial intestinal membrane permeability (PAMPA); assay type: in vitro ADME; settings: aqueous solution (control), PBS pH 6.8, 5 hours, room temperature
Protocol: Then, 200 μL was added to the donor of each well of the PAMPA plate, and 300 μL of buffer (PBS, pH 6.8) was added to each well of the receptor plate. The plate assembly was set by coupling the donor plate with the receiver plate. After 5 hours at room temperature, samples were withdrawn from donors and receptors in each well of the PAMPA plate, and the concentration was measured as follows.
The mobile phase consisted of water (pH 3.0 adjusted with phosphoric acid)-acetonitrile (99:1, v/v) and was run at a flow rate of 0.8 mL/min.
For 5-FU, injected into an HPLC system equipped with a C18 column (4.6×250 mm, 5 μm, 100 Δ; 20 μL injection), and were chromatographed using an isocratic mobile phase of deionized water (pH 3.2 adjusted with phosphoric acid) at a flow rate of 0.8 mL/min. The UV detection was carried out at 260 nm.
Effective permeability (Pe) of each drug was calculated using the following formula. Pe=−ln[1−CA(t)/Cequilibrium]/[A(1/VD+1/VA)×t]
(Pe: permeability (cm/s); A: Effective filter area (f×0.3 cm^2; f: Porosity of the filter (f=0.76)); VD: volume of the donor well (0.2 mL); VA: volume of Receptor well (0.3 mL); t: the total time of incubation in seconds (s); CA(t): concentration of drug in the receptor well at time t; Cequilibrium: [CD(t)×VD+CA(t)×VA]/(VD+VA); CD(t): concentration of residual drug in donor at time t)

[2] = In vitro intestinal cell membrane permeability across Caco-2 cell monolayer; assay type: in vitro ADME; settings: human, Solution in HBSS (control), apical to basolateral, 37° C., read-out: Apparent permeability (Papp)
Protocol: Caco-2 cells were seeded onto each well of 12-well Transwell® filter insert (pore size: 0.4 μm, surface area: 1.12 cm^2; Corning, N.Y., USA) at a density of 3×10^5 cells/well. Dulbecco's modified Eagle's medium (DMEM; Lonza, Basel, Switzerland) medium containing 10% fetal bovine serum (FBS; Gibco, Thermo Fisher Scientific) and 1% penicillin/streptomycin (Gibco) was changed every 48 hours for 21 to 29 days, and Caco-2 cell monolayers with a transepithelial electrical resistance (TEER) of >350 Ω·cm^2 were used for in vitro intestinal membrane permeability experiments.
First, the culture medium was removed and the monolayer was pre-incubated with 0.5 mL of Hanks' balanced salt solution (HBSS) for 20 min at 37° C. […] After processing the sample, 100-μL samples were taken from the basolateral compartment at 0.5, 1, 2, 3, 4, and 5 h. The samples were filtered through a membrane filter.

[3] = Drug release (dissolution) test, USP type 1 apparatus (basket); assay type: physicochemical; settings: pH 1.2, within 15 min
Protocol: Dissolution tests were performed in 500 mL of medium containint 0.1 N HCl solution (pH 1.2) or phosphate buffer (pH 6.8) at 37±0.2° C., using the USP type 1 apparatus (basket) rotating at 100 rpm.
Each capsule was subjected to a dissolution test, and 1-mL samples were withdrawn at 15, 30, 45, 60, 90, and 120 min. After filtration, the amount of drug released was quantified by the HPLC using a UV detector, as in Example 7, and the results are shown in FIG. 6.

[4] = In vivo oral absorption in rats, plasma 5-FU (HPLC); settings: rat
Protocol: (§1) After oral and intravenous administration, 200 μL of blood was collected from a capillary in the retro-orbital plexus at different time intervals and directly mixed with 50 μL of sodium citrate (3.8% solution). Blood samples were then immediately centrifuged (2,500×g, 15 minutes, 4° C.). The plasma samples were isolated and kept frozen at −70° C. until analysis.
To determine the plasma concentration of 5-FU, 100 μL of each standard and plasma samples were diluted with 50 μL of 20 μg/mL internal standard (IS, chlorouracil) and 100 μL of saturated ammonium sulfate solution. After vortexing for 1 min, the diluted plasma sample was extracted with a 2-mL solvent mixture of propanol and diethylether (80:20, v/v). The mixture was then centrifuged at 2,500×g for 10 min and the collected organic phase was evaporated under nitrogen at 37° C. The dried residues were reconstituted with 100 μL of mobile phase for HPLC analysis (ammonium phosphate buffer with pH 6.8/methanol, 98:2, v/v), followed by vortexing, and then determined by HPLC with a C8 column (4.6×250 mm, 5 μm) at a flow rate of 1 mL/min mobile phase. A 50-μL sample was injected and 5-FU was measured at 260 nm.

[5] = test system: CT26 mouse colon tumor cells; assay: In vivo tumor growth inhibition, CT26 tumor-bearing mice; parameters: species or system BALB/c mice
Protocol: The CT26 mouse colon tumor cells were subcutaneously grafted into the flanks of BALB/c mice at a concentration of 1×10^6 cells/100 μL of PBS (pH 7.4). […] During 18-day treatment, mice were fasted for 4 h before oral administration and 2 h after administration. Tumors were measured every three days in two dimensions using a caliper, and tumor volumes were calculated as a^2×b×0.52, where a=width and b=length. Body weight was also measured.
At 18 days after administration, the isolated tumors masses were measured, and tumor tissues were fixed in 10% formalin for histological evaluation. Staining with proliferating cell nuclear antigen (PCNA) for cell proliferation and fluorescent terminal deoxynucleotidyl transferase-mediated dUPT nick end labeling (TUNEL) for apoptosis were carried out.

[6] = In vivo oral absorption in rats, plasma OXA (Pt by AAS); settings: rat
Protocol: as §1
Before analysis, the sample was diluted with 10 mL of 3% nitric acid solution and then injected into the furnace for AAS analysis. All measurements were carried out using a Thermo Scientific iCE 3500 AAS (Thermo Fisher Scientific) equipped with a GFS35 graphite furnace and a GFS35Z autosampler. Argon was used as the purging gas at 200 mL/min, and the injection volume of the sample was 20 μL. The spectrometer was provided with a Zeeman-based background corrector, and the […].

O=c1[nH]cc(F)c(=O)[nH]1 [Composition 5-FU, 5-fluorouracil]
Effective permeability (Pe) [1]: 1.27±0.46 ×10^−6 cm/s | Papp A→B at 5 h, 384.4 μM [2]: 3.46 ± 1.22 ×10⁻⁶ cm/s | Drug released from the nanoemulsions [3]: at least 85% | half-life ([4]; plasma, oral, 5-FU 20 mg/kg): 48.8 ± 34 min | AUCinf ([4]; intravenous, 5-FU 5 mg/kg): 670 ± 221 ng·h/mL | AUClast ([4]; intravenous, 5-FU 5 mg/kg): 657 ± 220 ng·h/mL | Cmax ([4]; intravenous, 5-FU 5 mg/kg): 716 ± 124 ng/mL | T1/2 ([4]; intravenous, 5-FU 5 mg/kg): 45.6 ± 6.54 min | Bioavailability ([4]; intravenous, 5-FU 5 mg/kg (reference)): 100% | AUCinf ([4]; oral, 5-FU 20 mg/kg): 287 ± 96 ng·h/mL | AUClast ([4]; oral, 5-FU 20 mg/kg): 242 ± 58 ng·h/mL | Bioavailability ([4]; oral, 5-FU 20 mg/kg): 9.218 ± 2.198% | Cmax ([4]; oral, 5-FU 20 mg/kg): 92 ± 8 ng/mL | Tmax ([4]; oral, 5-FU 20 mg/kg): 30 ± 0 min | Effect of inhibiting tumor growth compared with the group administered orally with the OXA/DCK aqueous solution ([5]; once daily oral 10 mg/kg 5-FU in water): did not show a significant difference | Inhibition of tumor growth (tumor volume) compared to the control ([5]; once daily oral, 18-day treatment, 10 mg/kg OXA and/or 10 mg/kg 5-FU): 57.9%

O=C([O-])C(=O)[O-].[NH-][C@@H]1CCCC[C@H]1[NH-].[Pt+4] (relative stereo) [OXA, cis-[(1R,2R)-1,2-cyclohexanediamine-N,N′][oxalato(2-)-O,O′]platinum]
Effective permeability (Pe) [1]: 0.54±0.12 ×10^−6 cm/s | AUCinf ([6]; intravenous, OXA 5 mg/kg): 2537 ± 1312 ng·h/mL | AUClast ([6]; intravenous, OXA 5 mg/kg): 1962 ± 746 ng·h/mL | Cmax ([6]; intravenous, OXA 5 mg/kg): 2454 ± 990 ng/mL | T1/2 ([6]; intravenous, OXA 5 mg/kg): 186.2 ± 126.8 min | Bioavailability ([6]; intravenous, OXA 5 mg/kg (reference)): 100% | AUCinf ([6]; oral, OXA 10 mg/kg): 170 ± 61 ng·h/mL | AUClast ([6]; oral, OXA 10 mg/kg): 111 ± 95 ng·h/mL | Bioavailability ([6]; oral, OXA 10 mg/kg): 2.824 ± 2.428% | Cmax ([6]; oral, OXA 10 mg/kg): 32 ± 14 ng/mL | T1/2 ([6]; oral, OXA 10 mg/kg): 91.68 ± 54 min | Tmax ([6]; oral, OXA 10 mg/kg): 110 ± 17.3 min

Source: US11452705B2, “Oral drug delivery composition containing oxaliplatin and method for preparing same” (ICURE BNP CO., LTD., priority 2017, dated 2022)
